Test results from publication PMC11527646, “Pharmacological blockade of the mast cell MRGPRX2 receptor supports investigation of its relevance in skin disorders” (Frontiers in Immunology, 2024).

Key:
Format in all cases: cell-based
MRGPRX2 [1] = target: T1, MRGPRX2 (Homo sapiens, UniProt Q96LB1); assay: FcεR1/MRGPRX2 dual-stimulation β-hexosaminidase release in freshly isolated human skin mast cells; set-up: human mast cells expressing endogenous MRGPRX2; endogenous in cells; […]; settings: Substance P plus anti-IgE (10 μg/mL); n = 3 donors
T1 sequence (Q96LB1 1-330): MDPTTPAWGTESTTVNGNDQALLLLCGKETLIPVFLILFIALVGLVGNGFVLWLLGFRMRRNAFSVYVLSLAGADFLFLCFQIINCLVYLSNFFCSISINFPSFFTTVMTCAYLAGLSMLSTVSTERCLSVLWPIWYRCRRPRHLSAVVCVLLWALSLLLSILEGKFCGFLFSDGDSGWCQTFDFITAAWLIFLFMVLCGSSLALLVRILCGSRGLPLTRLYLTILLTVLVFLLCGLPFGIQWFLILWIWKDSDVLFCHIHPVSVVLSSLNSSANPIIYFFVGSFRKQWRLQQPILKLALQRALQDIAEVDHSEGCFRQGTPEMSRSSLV
Protocol: (§1) Tissue was processed, removing adipose and cutting into small segments. Epidermis was removed after incubation with dispase II (2 mg/mL; Sigma-Aldrich) [100 mL/50-cm^2 tissue, base buffer; Dulbecco’s Phosphate-buffered Saline (D-PBS) (Gibco, supplemented with Ca^2+/Mg^2+), amphotericin B (2.5 μg/mL), penicillin (100 units/mL)/streptomycin (100 μg/mL) (Sigma-Aldrich)] for 37°C for 2–4 h followed by 4°C overnight. The remaining dermis was homogenized into a uniform mass and digested with an enzyme cocktail [collagenase IV (10 mg/mL; Gibco), hyaluronidase I-S (5 mg/mL; Sigma), DNAse I (10 μg/ml; Roche)] in base buffer (supplemented with 10% FBS) in a shaking incubator at 37°C for 90 min. […]
(§2) For human primary skin mast cell degranulation experiments, both β-hexosaminidase and tryptase were measured. […] Plates were centrifuged, with supernatants collected and lysates generated [cell pellets lysed in 0.1% Tx100 (Sigma), in assay buffer], and then stored at −80°C for later quantification. β-Hexosaminidase activity assay was performed as already described. For tryptase quantification: The amount of total tryptase (α and β tryptase) was quantified using the ImmunoCap Tryptase Test ran on either a Phadia 100 or 250 Immunoassay Analyzer as per the manufacturer’s protocol. […]

MRGPRX2 [2] = target: T1, MRGPRX2; assay: Calcium imaging of peritoneal mast cells isolated from human MRGPRX2 KI mice; settings: 100 nM antagonist; Cpd 48/80 1 μg/mL; n ≥ 4
Protocol: Mouse peritoneal mast cells were purified and imaged as previously described ([4]). Mast cells were resuspended at 5 × 10^5 to 1 × 10^6 cells/mL in DMEM with 10% FBS and recombinant mouse SCF (25 ng/mL) and plated onto glass cover slips coated with fibronectin (30 µg/mL). For imaging, after 2 h of incubation at 37°C, 5% CO2, mast cells were loaded with Fluo-4 along with 0.02% Pluronic F-127 for 30 min at room temperature, washed three times in calcium imaging buffer (CIB), and used immediately for imaging. Cells were used within 2 h of loading. Cells were identified as responding if the [Ca^2+] rose by at least 50% for >10 s.
Figure 6 Oral treatment with the potent and selective MRGPRX2 antagonist, Compound B (3 mg/kg), blocks Cpd 48/80–induced itch response using human MRGPRX2 knock-in mice. […] Average ± SD blood-free concentration of antagonist measured at end of “itch” observation period was 19 ± 16 nM Compound B.

MRGPRX2 [3] = target: T1, MRGPRX2; assay: Substance P-stimulated tryptase release from freshly isolated human skin mast cells; set-up: human mast cells expressing endogenous MRGPRX2; endogenous in cells; […]; settings: read-out: pIC50, inhibition of Substance P-stimulated tryptase release (converted)
Protocol: as §1, §2

C[C@@H](C(=O)Nc1cnc(Oc2ccc(F)cc2F)cn1)N1CCC(F)(F)[C@@H](c2cc[n+]([O-])cc2)C1 [Compound B]
Effect on MRGPRX2-dependent augmentation of FcεR1/MRGPRX2 dual-stimulation β-hexosaminidase release (MRGPRX2 [1]): selectively inhibits | Effect on Cpd 48/80-mediated activation of peritoneal mast cells (MRGPRX2 [2]): completely antagonize | IC50 (MRGPRX2 [3]): 0.417 nM
